According to patent publication US6815195B2, “5-substituted hydantoin racemase, DNA coding for the racemase, and processes for producing optically active amino acids” (Ajinomoto Co. Inc., priority 2000, dated 2004):
Entries after “also recorded” stand apart in the source; their conditions may differ.

Legend:
HRase [1] = assay: Effect of various reagents such as enzyme inhibitors on HRase activity (residual activity); type: biochemical, Microbacterium liquefaciens AJ3912; conditions: for effect of reagent on HRase activity (in words): purified HRase pre-incubated with reagent; for Residual Activity (%): relative to activity without reagent (100%), pre-incubation 0° C. 30 min pH 8.0, reaction pH 8.0, 30° C., 30 min, concentration in reaction: NEM 5 mM, CuSO4 2.5 mM, IAA 10 mM, EDTA 10 mM, Methanol 10% (v/v)
Protocol: (§1) Specifically, a reaction solution containing 120 mg/dl L- or D-benzyl hydantoin (BH), 50 mM dibasic potassium phosphate buffer (KPB) (pH 8.0), 5 mM dithiothreitol (DTT) and an HRase enzyme solution was incubated at 37° C. for 30 minutes, and the reaction was stopped by adding a 9-fold excess volume of 1.1 mM CuSO4 and 11.1 mM H3PO4 solution. The precipitates were removed by centrifugation at 20,000 g×10 minutes, and the amount of racemized BH was quantitatively determined by HPLC to estimate the racemization activity. The enzyme activity causing racemization of 1 μmol BH per minute under these conditions was defined as 1 U of the enzyme activity.
1.5 μg/ml purified HRase was pre-incubated at 0° C. for 30 minutes at pH 8.0 with 25 mM DTT, 25 mM N-ethylmaleimide (NEM), 12.5 mM CuSO4, 50 mM monoiodoacetic acid (IAA), 50 mM EDTA or 50% (v/v) methanol. As the enzyme source, each of these mixtures was reacted at pH 8.0, at 30° C. for 30 minutes to measure the residual activity, and the susceptibility of the HRase to each inhibitor was determined. The concentration of each of the enzyme and the inhibitor during the reaction was about ⅕ relative to the concentration during the pre-incubation.
The residual activity was shown as relative activity to the activity (100%) in the absence of the reagent (see Table 2).

HRase [2] = assay: Racemization of optically active 5-substituted hydantoin compounds other than BH (D-amino acid formation with AJ 11220 and HRase, TLC); type: biochemical, Microbacterium liquefaciens AJ3912; conditions: 1 g/dl substrate, 1.3 μg/ml purified HRase, 2 g/dl wet AJ 11220, 37° C., 22 hours, optical resolution TLC
Protocol: The ability of the present HRase to catalyze racemization of optically active 5-substituted hydantoin compounds other than BH was examined. The formation of D-amino acid from L-5-substituted hydantoin by a combination of Pseudomonas sp. AJ 11220 and HRase was confirmed in the same manner as in Example 8.
1 g/dl 5-substituted hydantoin of various kinds, together with 1.3 μg/ml purified HRase, 0.1 M KPB (pH 8.0), 0.5 mM CoCl2 and 2 g/dl wet AJ 11220, was subjected to stationary reaction at 37° C. for 22 hours. Each hydantoin consisted of D- and L-isomers as the substrate, and it was confirmed that D-amino acid was formed from the D-isomer substrate in the absence of HRase, and also that D-amino acid was not formed from the L-isomer substrate in the absence of HRase, and then it was judged that when D-amino acid was formed from the L-isomer substrate in the presence of HRase, the substrate was recognized. The formation of D-amino acid was qualitatively estimated by development with optical resolution TLC (MERCK, HPTLC CHIR) with methanol:H2O:acetonitrile=1:1:4.

HRase [3] = assay: Racemization of BH by purified HRase (substrate recognition); type: biochemical, Microbacterium liquefaciens AJ3912; conditions: 0.3 mg/ml purified HRase, 37° C., pH 8.0
Protocol: (§2) A reaction solution containing 0.3 mg/ml purified HRase, 0.12 g/dl D- or L-BH, 50 mM KPB (pH 8.0) and 5 mM DTT was incubated at 37° C. and sampled with time to quantify the amount of BH by HPLC. As the control, the same experiment was performed in an experimental group not containing the enzyme, to quantify the spontaneous racemization of BH.

[4] = HRase activity measurement: racemization of BH quantified by HPLC (specific activity of purified HRase); type: biochemical, Microbacterium liquefaciens AJ3912
Protocol: Measurement of the HRase activity of the HRase of the present invention can be carried out by measuring a change in the optical rotation as the degree of racemization of the optically active D- or L-5-substituted hydantoin compound as the substrate or by high performance liquid chromatography (HPLC) using an optical resolution column.
as §1
The quantitative analysis of optically active BH by analysis in HPLC was conducted by use of Daicel Chemical CHIRALPAK WH 0.46 cmφ×25 cm. The analysis conditions are as follows:
as §2

[5] = Production of D-Phe from DL-BH or L-BH by a combination of Agrobacterium sp. AJ11220 and HRase; type: biochemical; conditions: reaction 30 hours
Protocol: 0.5 g/dl (26 mM) DL-BH or L-BH, together with 0.84 μg/ml purified HRase, 0.1 M KPB (pH 8.0), 0.5 mM CoCl2 and 2 g/dl wet AJ11220 microorganism, was subjected to stationary reaction at 30° C. Oxygen was previously removed from the reaction solution by replacing it by nitrogen. The reaction solution was sampled with time and analyzed by HPLC to quantify the formed D-Phe.

[6] = calculated from initial reaction rate, 37° C., pH 8.0, 5 mM DTT

O[C@H](CS)[C@H](O)CS (racemic) [DTT, dithiothreitol]
effect of reagent on HRase activity (in words) (HRase [1]): activated

CC(C)C[C@@H]1NC(=O)NC1=O [L-5-isobutyl hydantoin]
racemization by HRase (D-amino acid formed from L-isomer substrate, qualitative) (HRase [2]): racemized

O=C1NC(=O)[C@H](Cc2ccccc2)N1 [L-BH, L-benzyl hydantoin]
recognition as substrate by HRase (HRase [3]): recognized

O=C(O)CN(CCN(CC(=O)O)CC(=O)O)CC(=O)O [EDTA, ethylenediaminetetraacetic acid]
effect of reagent on HRase activity (in words) (HRase [1]): no significant inhibitory effect; also recorded: minimally inhibited
Residual Activity (%) (HRase [1]): 86%

O=C(O)CI [IAA, monoiodoacetic acid]
effect of reagent on HRase activity (in words) (HRase [1]): strongly inhibited
effect of reagent on HRase activity (in words) (HRase [1]; listed as iodoacetic acid): significantly inhibited
Residual Activity (%) (HRase [1]): 0%

CCN1C(=O)C=CC1=O [NEM, N-ethylmaleimide]
effect of reagent on HRase activity (in words) (HRase [1]): significantly inhibited; also recorded: strongly inhibited
Residual Activity (%) (HRase [1]): 0%

O=C1NC(=O)[C@@H](Cc2ccccc2)N1 [D-BH, D-benzyl hydantoin]
recognition as substrate by HRase (HRase [3]): recognized

CO [Methanol, methanol]
effect of reagent on HRase activity (in words) (HRase [1]): did not influence
Residual Activity (%) (HRase [1]): 99%

O=C1NC(=O)[C@H](Cc2ccc(O)cc2)N1 [L-5-(p-hydroxybenzyl) hydantoin]
racemization by HRase (D-amino acid formed from L-isomer substrate, qualitative) (HRase [2]): racemized

O=C1NC(=O)[C@H](Cc2c[nH]c3ccccc23)N1 [L-5-indolyl methyl hydantoin]
racemization by HRase (D-amino acid formed from L-isomer substrate, qualitative) (HRase [2]): racemized

O=S(=O)([O-])[O-].[Cu+2] [CuSO4]
effect of reagent on HRase activity (in words) (HRase [1]; listed as Cu^2+): significantly inhibited
effect of reagent on HRase activity (in words) (HRase [1]; listed as copper ion): strongly inhibited
Residual Activity (%) (HRase [1]): 0%

B1: HRase: 5-substituted hydantoin racemase from Microbacterium liquefaciens AJ3912, amino acid sequence SEQ ID NO:2 (protein)
chain: MRIHVINPNSSVDLTDAVAEAARSVVSPGTTITAVNPSKGPTVIEGSYDEVLATYHLVEEVRRAEREDRPDAYVIACFGDPGLDAVRELTDRPVVGIAEAAIQMTSFVAASFSIVSILPRVRKHLHELVHRAGATDRLASLKLPDLGVLAFHEDEAAAFETLRRVAGEAVREDGAESIVLGCAGMAGFARQLSEELGVPVIDAVEAACRVAESLVALGYRTSKANTYQAPTEKQYL
specific activity of the purified HRase ([4]; after purification (Example 1), 1 U = racemization of 1 μmol BH per minute): 79 U/mg
specific activity of the purified HRase, formation of D-BH from L-BH [4, 6]: 100 U/mg
specific activity of the purified HRase, formation of L-BH from D-BH [4, 6]: 79 U/mg
amount of D-Phe formed from DL-BH ([5]; HRase added (0.84 μg/ml), 26 mM DL-BH, 2 g/dl wet AJ11220, 30° C.): 24.6 mM
amount of D-Phe formed from L-BH ([5]; HRase added (0.84 μg/ml), 26 mM L-BH, 2 g/dl wet AJ11220, 30° C.): 24.6 mM
molar yield of D-Phe from DL-BH ([5]; HRase added, 26 mM DL-BH): 94%
molar yield of D-Phe from L-BH ([5]; HRase added, 26 mM L-BH): 94%
